The subject of assay [1] is Vero. The experiment in a line: cells. Type of assay: functional. Conditions: Chlorocebus sabaeus.
For assay [2], the system named is INS1. Briefly: beta cell apoptosis inhibitors, cytokine rescue, dose response, luminescence, retest (AID 449756).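 Further: cell death triggered by IL-1 beta plus TNF-alpha plus IFN-gamma mixture; protective hits raise ATP signal compared with cytokine alone wells.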 Type of assay: functional, cell-based. Conditions: Rattus norvegicus.
Assay [3] can be described thus: microbe, parasite or virus in culture. Type of assay: functional. Conditions: Mycobacterium tuberculosis.
The nature of assay [4]: growth suppression of beta-catenin-knockout colon cells, dose response, cell-based, HCT116, human colon tumor (AID 1045).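 Further: HCT116 colon tumor cells with beta catenin knocked out; cells exposed to compound for 60 hours.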 Type of assay: functional.
Assay [5] deals with T1, Protein RecA (Mycobacterium tuberculosis, UniProt P9WHJ3).
T1 sequence (P9WHJ3 whole entry): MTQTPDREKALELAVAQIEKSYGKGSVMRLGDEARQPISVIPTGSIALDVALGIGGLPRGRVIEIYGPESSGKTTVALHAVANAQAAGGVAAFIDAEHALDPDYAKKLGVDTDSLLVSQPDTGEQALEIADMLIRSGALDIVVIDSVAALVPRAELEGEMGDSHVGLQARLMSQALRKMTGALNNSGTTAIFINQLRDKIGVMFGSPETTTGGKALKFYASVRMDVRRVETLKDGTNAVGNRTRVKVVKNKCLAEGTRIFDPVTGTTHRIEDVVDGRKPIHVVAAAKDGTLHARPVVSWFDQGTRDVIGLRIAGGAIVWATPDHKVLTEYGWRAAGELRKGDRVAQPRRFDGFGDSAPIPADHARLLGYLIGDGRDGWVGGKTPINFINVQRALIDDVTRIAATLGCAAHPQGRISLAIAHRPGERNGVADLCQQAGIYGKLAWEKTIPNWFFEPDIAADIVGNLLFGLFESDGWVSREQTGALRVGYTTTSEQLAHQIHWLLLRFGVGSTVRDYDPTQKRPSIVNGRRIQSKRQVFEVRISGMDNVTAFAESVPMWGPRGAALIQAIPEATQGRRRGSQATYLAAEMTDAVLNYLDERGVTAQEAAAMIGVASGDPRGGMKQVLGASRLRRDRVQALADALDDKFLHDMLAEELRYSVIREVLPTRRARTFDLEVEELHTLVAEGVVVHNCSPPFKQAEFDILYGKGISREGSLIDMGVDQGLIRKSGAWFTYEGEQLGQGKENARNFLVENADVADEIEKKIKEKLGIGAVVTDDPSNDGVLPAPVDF
The experiment in a line: Fluorescence Cell-Free Homogeneous Dose Retest to Identify Inhibitors of RecA-Intein Splicing Activity. [Related pubchem assays (depositor defined):AID2097, AID2223, AID489010, AID492950]. Type of assay: functional.

Assay [6] can be described thus: growth suppression of PTEN-null colon cells, dose response, cell-based, HCT116 PTEN knockout (AID 1047).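 Further: HCT116 colon tumor cells with PTEN knocked out; cells exposed to compound for 60 hours before readout; potency for loss of cell viability measured by luminescence.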 The assay is classed as functional.
Assay [7] concerns the target T2, Replicative DNA helicase DnaB (Mycobacterium tuberculosis, UniProt P9WMR3).
T2 sequence (P9WMR3 whole entry): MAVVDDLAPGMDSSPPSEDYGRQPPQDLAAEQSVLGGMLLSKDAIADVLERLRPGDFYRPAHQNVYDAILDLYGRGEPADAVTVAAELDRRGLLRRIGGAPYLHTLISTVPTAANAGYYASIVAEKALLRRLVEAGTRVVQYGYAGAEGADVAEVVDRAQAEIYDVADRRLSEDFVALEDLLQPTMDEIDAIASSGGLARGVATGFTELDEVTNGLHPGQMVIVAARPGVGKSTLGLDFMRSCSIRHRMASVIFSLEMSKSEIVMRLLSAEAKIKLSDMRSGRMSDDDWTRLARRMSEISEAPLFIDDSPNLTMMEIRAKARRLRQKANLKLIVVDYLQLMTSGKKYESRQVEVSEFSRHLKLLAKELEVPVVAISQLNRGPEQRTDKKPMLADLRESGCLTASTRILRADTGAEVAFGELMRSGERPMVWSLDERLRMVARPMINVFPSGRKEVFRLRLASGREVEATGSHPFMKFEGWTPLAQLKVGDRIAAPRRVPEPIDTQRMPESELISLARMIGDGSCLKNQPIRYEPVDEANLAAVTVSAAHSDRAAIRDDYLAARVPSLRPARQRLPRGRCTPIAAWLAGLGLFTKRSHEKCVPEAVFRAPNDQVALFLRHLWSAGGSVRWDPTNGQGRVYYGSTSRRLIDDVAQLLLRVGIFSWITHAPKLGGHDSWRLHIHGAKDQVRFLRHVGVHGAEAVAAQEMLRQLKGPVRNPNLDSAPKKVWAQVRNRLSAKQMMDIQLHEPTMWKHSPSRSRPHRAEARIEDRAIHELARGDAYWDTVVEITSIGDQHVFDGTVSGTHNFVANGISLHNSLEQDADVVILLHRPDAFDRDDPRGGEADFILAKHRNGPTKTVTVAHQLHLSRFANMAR
The experiment in a line: DnaB intein splicing inhibitors, dose response, biochemical, cell-free fluorescence (AID 449749). The assay is classed as functional.

The target of assay [8] is T3, Corticotropin-releasing factor receptor 2/Corticotropin-releasing factor-binding protein (Homo sapiens, UniProt P24387+Q13324).
T3 sequence (Q13324 whole entry): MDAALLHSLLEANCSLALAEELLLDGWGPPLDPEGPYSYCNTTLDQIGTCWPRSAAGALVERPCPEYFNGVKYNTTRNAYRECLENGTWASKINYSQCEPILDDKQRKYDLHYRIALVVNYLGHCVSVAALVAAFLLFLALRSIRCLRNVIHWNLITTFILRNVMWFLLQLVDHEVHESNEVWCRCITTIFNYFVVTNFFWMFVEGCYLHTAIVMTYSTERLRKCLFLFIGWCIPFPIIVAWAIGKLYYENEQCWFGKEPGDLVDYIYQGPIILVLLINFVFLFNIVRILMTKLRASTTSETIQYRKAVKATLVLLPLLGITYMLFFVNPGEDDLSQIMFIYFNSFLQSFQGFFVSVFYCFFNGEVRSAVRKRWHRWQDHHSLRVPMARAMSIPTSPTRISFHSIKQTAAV
T3 sequence (P24387 whole entry): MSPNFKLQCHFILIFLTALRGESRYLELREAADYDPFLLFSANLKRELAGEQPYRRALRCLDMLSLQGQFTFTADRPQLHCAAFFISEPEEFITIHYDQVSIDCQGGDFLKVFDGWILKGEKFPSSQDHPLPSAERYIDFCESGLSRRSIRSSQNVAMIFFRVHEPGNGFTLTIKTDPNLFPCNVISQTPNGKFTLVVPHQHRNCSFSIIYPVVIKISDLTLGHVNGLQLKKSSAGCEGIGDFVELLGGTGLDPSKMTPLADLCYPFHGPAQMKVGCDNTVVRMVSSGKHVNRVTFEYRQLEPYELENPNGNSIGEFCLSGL
The experiment in a line: Dose Response confirmation of uHTS hits for small molecule antagonists of the CRF-binding protein and CRF-R2 receptor complex. The assay is classed as functional. Conditions: read-out: IC50_Mean.

The target in assay [9] is T3, Corticotropin-releasing factor receptor 2/Corticotropin-releasing factor-binding protein. Briefly: activators of CRF receptor 2 with binding protein – uHTS hits, confirmation (AID 602473). Type of assay: functional. Conditions: read-out: EC50_Mean.
The target in assay [10] is Paired box protein Pax-8 (Homo sapiens, UniProt Q06710). The experiment in a line: inhibitors of PAX8-driven TPO luciferase reporter, dose response, RMG-I cells, cherry-pick (AID 687027).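 Further: luciferase reporter driven by Pax8 target thyroperoxidase promoter measured by SteadyGlo luminescence.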 Type of assay: functional, cell-based. For orientation: Reporter assays use an easily measured gene product as a stand-in for the process of interest.
Assay [11] can be described thus: cytotoxicity toward NIH3T3 fibroblasts, dose response, counter-screen, cell-based, ATP luminescence, mouse fibroblasts (AID 2010).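 Further: cells exposed to compound for about 90 hours before reading.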 Type of assay: functional. Background: Counterscreens check selectivity or assay interference.
Assay [12] in a line: inhibitors of intracellular T. cruzi replication, confirmation, NIH3T3 host cells, beta-gal luminescence (AID 2044).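 Further: intracellular parasites grown in NIH/3T3 mouse fibroblasts as host cells; luminescent beta-galactosidase reporter signal from transgenic T. cruzi replicating inside host cells; inhibitors lower the luminescence signal.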 The assay is classed as functional, cell-based.
The target of assay [13] is T4, Ubiquitin-conjugating enzyme E2 N (Homo sapiens, UniProt P61088).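 Further: Dose-response confirmation in a TR-FRET assay detecting UBC13-driven polyubiquitin chain formation, inhibition measured.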
T4 sequence (P61088 whole entry): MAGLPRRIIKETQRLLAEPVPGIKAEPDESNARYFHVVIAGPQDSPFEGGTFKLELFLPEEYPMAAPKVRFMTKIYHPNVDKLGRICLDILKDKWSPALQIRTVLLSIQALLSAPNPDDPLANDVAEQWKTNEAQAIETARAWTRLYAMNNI
Type of assay: functional.

The nature of assay [14]: Luminescence Cell-Based Dose Confirmation HTS to Identify Inhibitors of Platelet Dense Granule Release. [Related pubchem assays: 1663 (Primary HTS), 1678 (Summary of Project)]. Type of assay: functional.
In assay [15] the target is Luciferin 4-monooxygenase (Photinus pyralis, UniProt P08659). The experiment in a line: firefly luciferase enzyme inhibitors, dose response, biochemical, luminescence (AID 1891).
Assay [16] in a line: inhibitors of SNCA 5'UTR-driven reporter translation, confirmation, H4 neuroglioma cells, luminescence (AID 1988). The assay is classed as functional, cell-based.
Assay [17] in a line: Luminescence Cell-Based Dose Response HTS to Identify Inhibitors of 5'UTR Stem-Loop Driven Prion Protein mRNA Translation in H4 Neuroglioblastoma Cells. [Related pubchem assays: 1827 (Project Summary), 1813 (Primary HTS)]. Type of assay: functional.
Assay [18] can be described thus: inhibitors of firefly luciferase expression or activity, dose response, H4 neuroglioma cells, luminescence (AID 1990). The assay is classed as functional, cell-based.

27 compounds from ChEMBL document CHEMBL1201862, “PubChem BioAssay data set” (2004) can be followed below.

Active and inactive are the calls of the source. Some results are limits rather than exact numbers.

Chain of Luciferin 4-monooxygenase (P08659 whole entry): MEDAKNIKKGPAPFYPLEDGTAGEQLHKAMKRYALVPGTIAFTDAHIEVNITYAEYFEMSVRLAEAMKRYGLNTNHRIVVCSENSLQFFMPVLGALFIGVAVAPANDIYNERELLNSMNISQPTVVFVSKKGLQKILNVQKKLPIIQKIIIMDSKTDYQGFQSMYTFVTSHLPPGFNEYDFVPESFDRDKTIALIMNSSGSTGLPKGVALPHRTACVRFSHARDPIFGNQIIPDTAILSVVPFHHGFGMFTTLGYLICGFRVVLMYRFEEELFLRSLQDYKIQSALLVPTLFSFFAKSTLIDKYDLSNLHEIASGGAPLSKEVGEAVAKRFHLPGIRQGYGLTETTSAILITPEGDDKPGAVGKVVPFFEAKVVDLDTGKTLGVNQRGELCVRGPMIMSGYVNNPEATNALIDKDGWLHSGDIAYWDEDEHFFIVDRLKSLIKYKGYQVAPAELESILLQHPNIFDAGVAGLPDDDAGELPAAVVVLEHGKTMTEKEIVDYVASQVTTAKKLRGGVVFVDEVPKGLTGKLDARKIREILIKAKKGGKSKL
Chain of Paired box protein Pax-8 (Q06710 whole entry): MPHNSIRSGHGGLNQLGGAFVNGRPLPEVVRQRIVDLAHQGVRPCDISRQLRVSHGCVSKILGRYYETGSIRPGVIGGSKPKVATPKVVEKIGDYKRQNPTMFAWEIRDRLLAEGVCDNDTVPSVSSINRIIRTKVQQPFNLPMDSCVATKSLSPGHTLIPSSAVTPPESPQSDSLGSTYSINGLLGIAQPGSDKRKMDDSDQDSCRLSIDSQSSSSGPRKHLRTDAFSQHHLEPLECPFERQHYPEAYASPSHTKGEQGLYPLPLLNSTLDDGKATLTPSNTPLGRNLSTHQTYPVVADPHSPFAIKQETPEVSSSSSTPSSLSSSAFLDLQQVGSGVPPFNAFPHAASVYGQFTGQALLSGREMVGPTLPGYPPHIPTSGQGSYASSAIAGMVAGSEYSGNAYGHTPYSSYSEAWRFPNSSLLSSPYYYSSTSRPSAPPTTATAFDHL

Take `O=C(NN=C(c1ccccc1)c1ccccn1)c1ccccc1`: in [1], the CC50 is 3.11 µM (active). Further, the AC50 – broadly, the concentration at which the activity in the assay is half-maximal – in assay [2] was 0.736 µM (active).
`CN(C(=S)NC(=O)c1ccc(Cl)cc1)C1CCCCC1`: the CC50 in [3] was > 40 µM (active).
Consider `CCOC(=O)c1nnc(-c2ccccc2)nc1Sc1c(Cl)cccc1Cl`, for which the EC50 in [4] was 27.7 µM (active); in assay [5], > 380 µM (inconclusive); in assay [6], 26.9 µM (active). Also, the AC50 in assay [7] is 2.22 µM (active).
With `COc1ccc(C=NN=C2c3ccccc3-c3ccccc32)cc1O`, the CC50 in [1] was > 25 µM (active).
Regarding `Cc1ccc(-c2nnc(SCC(=O)N3CCN(c4ccccc4)CC3)o2)cc1`, in [8], the IC50 was > 47.1 µM (inactive). Moreover, in assay [9], the EC50 was > 53 µM (inactive).
For `C[C@@H]1CCCCO[C@@H](CN(C)CC2CC2)[C@@H](C)CN([C@H](C)CO)C(=O)c2cc(N(C)C)ccc2O1` the same measures were > 47.1 µM (inactive) and > 53 µM (inactive).
In the case of `C[C@H]1CN([C@@H](C)CO)C(=O)c2ccccc2-c2ccccc2CO[C@H]1CN(C)S(=O)(=O)c1ccc(C(F)(F)F)cc1`, the AC50 in assay [10] is 9.62 µM (active).
In the case of `Cc1sc(NC(=O)c2ccco2)c(C(c2ccccc2)N2CCC(C)CC2)c1C` (configuration not stated), in [1], the CC50 was 14.1 µM (active). The EC50 in assay [11] is > 60 µM (not active); in assay [12] it was 1.09 µM (active).
Turning to `Cc1ccc(S(=O)(=O)N2[C@@H](c3ccc(Br)cc3)C(C(=O)O)=CC[C@H]2c2cccc(C)c2)cc1`, in assay [8], the IC50 was > 47.1 µM (inactive). In assay [9], the EC50 is > 53 µM (inactive).
For `Cc1nc(N)c2c(Cc3cccc4ccccc34)nn(C(C)(C)C)c2n1`, the IC50 in [13] is > 20 µM (inactive).
Consider `O=C(/C=C/c1ccncc1)c1ccc2c(c1)OCCO2`, for which, in [1], the CC50 was > 25 µM (active).
Turning to `CC(=O)c1c(S)nc(-c2ccccc2)nc1N1CCN(C)CC1`, the EC50 in assay [14] and in assay [15] was > 112 µM (not active) throughout.
For `Cc1cccc(OCC(=O)N2CCN(C(=O)c3cccs3)CC2)c1`, the EC50 in [14] and in [15] was > 112 µM (not active) each time.
With `O=C1CCc2ccc(OCCCCN3CCN(c4cccc(Cl)c4Cl)CC3)cc2N1` [ARIPIPRAZOLE], in assay [3], the CC50 was 29.4 µM (active).
With `O=C(NCCCN1CCOCC1)c1ccccc1`, the EC50 in assay [14] and in [15] was > 112 µM (not active) each time.
In the case of `CC1CCN(c2c(NCc3ccc(C(=O)N4CCN(C5CCCCC5)CC4)cc3)c(=O)c2=O)CC1`, in assay [13], the IC50 is > 20 µM (inactive).
The same measure, in the same setting: as for `Cc1ccc(-c2noc(CCC(=O)NCC3CCN(Cc4cccc(C)c4)CC3)n2)cc1`, the figure is > 20 µM (inactive).
As to `O=C(C1CCC1)N1CCCCN2[C@H](CO)[C@H](c3ccc(-c4cccc(F)c4)cc3)[C@H]2C1`, in assay [10], the AC50 is 19.1 µM (active).
`C[C@H]1CN([C@@H](C)CO)S(=O)(=O)c2ccc(Br)cc2O[C@@H]1CN(C)Cc1cccc(F)c1`: the CC50 in [1] is > 25 µM (active).
Take `COc1cccc(C(=O)NCc2nnc(SCC(=O)Nc3nccs3)n2-c2ccccc2)c1`: the EC50 in assay [14] and in assay [15] was > 112 µM (not active) in each case.
Take `O=C(CCN1C(=O)/C(=C\c2ccccc2)SC1=S)N1CCOCC1`: the CC50 in assay [1] was 24.5 µM (active).
Take `CCOC(=O)Cc1csc(N/C=C2/C(=O)N(c3ccc(C)c(C)c3)C(=O)c3ccccc32)n1`: the EC50 in assay [16] was > 120 µM (not active); in assay [4] it was 10 µM (active); in [17], 10.1 µM (active); in [6] it was 15.1 µM (active); in assay [18], > 120 µM (not active).
Take `COc1ccccc1CN1CCCC(C(=O)N(C)Cc2ccccc2)C1` (configuration not stated): the IC50 in [8] is > 47.1 µM (inactive). For the same compound, the EC50 in [9] was > 53 µM (inactive).
For `CC(=O)Nc1ccc(N2C(C(C)=O)=NN(c3ccc(Cl)cc3)C2c2sccc2C)cc1` (configuration not stated), the CC50 in assay [3] was > 40 µM (active).
As for `CC(C)CC(C(=O)Nn1cnnc1)N1C(=O)c2ccccc2C1=O` (configuration not stated), the IC50 in [8] was > 47.1 µM (inactive). Besides, in assay [9], the EC50 is > 53 µM (inactive).
Take `COc1ccc(-c2nc(NC(=O)Cn3ccc(C(F)(F)F)n3)sc2C)cc1`: the CC50 in assay [3] was > 40 µM (active).
Turning to `COc1ccc(SCC(=O)Nc2ccccc2Cl)cc1`, the IC50 in assay [8] is > 47.1 µM (inactive). Besides, in assay [9], the EC50 was > 53 µM (inactive).
